Results from patent publication US6740772B1, “Prostaglandin derivatives” (Taisho Pharmaceutical Co., Ltd., priority 1999, dated 2004).

Test system: EBTr [NBL-4] cells derived from bovine embryonic trachea
Experiment: cAMP production promoting action in EBTr [NBL-4] cell derived from bovine embryonic trachea
Assay type: cell-based
Conditions: for EC50: concentration producing 50% of the cAMP amount obtained with 10 μM PGD2 (=100%), 15 minutes with test compound and 0.5 mM 3-isobutyl-1-methylxanthine; for cAMP production promoting action (in words): conclusion drawn from Table 1
Procedure: Experiment [Measurement of cAMP production promoting action in EBTr [NBL-4] cell derived from bovine embryonic trachea]
According to the method of Ito et al. in Br. J. Pharmacol., vol. 99, page 13-14 (1990), the following test was carried out.
That is, EBTr [NBL-4] cells derived from bovine embryonic trachea (produced by Dainippon Pharmaceutical Co.) were inoculated on 24-well plates (6×10^4 cells/well) (manufactured by Sumitomo Bakelite Co.), and cultured on a growth medium (MEM Earle's medium including 10% calf serum, 2mM glutamine and non-essential amino acids) for 48 hours, followed by cultivation on 0.5 ml of a growth medium including the test compound and 0.5 mM 3-isobutyl-1-methylxanthine) for 15 minutes. After the completion of the reaction, the cells were washed with a phosphate buffer (not including Ca++ and Mg++), 0.6 ml of 65% aqueous ethanol solution was added, followed by allowing to stand at 4° C. for an hour, and the resulting cAMP was extracted. After evaporation of the solvent by a centrifugal evaporator, the amount of cAMP was measured by using a cAMP EIA System (manufactured by Amersham Co.).
When an amount of cAMP obtained by adding PGD2 in a concentration of 10 μM was regarded as 100%, a concentration required to produce 50% of the amount of cAMP was measured as EC50.
(note) Compounds 19 and 97 are those prepared in the examples as described above. The test compounds were each used as a form of an ethanol solution, and compared with a vehicle-treated group as a control.

SMILES | EC50 | cAMP production promoting action (in words)
O=C(O)CCCCSCC1C(Cl)CC(O)C1C#CC(O)C1CCCCC1 (stereo not drawn) [Compound 19, 6-Thia-9-deoxy-9β-chloro-16,17,18,19,20-pentanor-15-cyclohexyl-13,14-didehydro-PGF1α] | 0.0173 µM | strong cAMP production promoting action
O=C(O)COCCSCC1C(Cl)CC(O)C1C#CC(O)C1CCCCC1 (stereo not drawn) [Compound 97, 3-Oxa-6-thia-9β-chloro-13,14-didehydro-16,17,18,19,20-pentanor-15-cyclohexyl-9-deoxy-PGF1α] | 0.00513 µM | strong cAMP production promoting action
CCCCC[C@H](O)/C=C/[C@H]1C(=O)C[C@H](O)[C@@H]1C/C=C\CCCC(=O)O [PGD2, reference compound] | 0.124 µM | 
